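Exposure lasted 48 hours, with cells grown in 96-well plates and compounds tested at five concentrations. At the GI50, growth is halved. TGI: total growth inhibition.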
Experiments:
Experiment in all cases: NCI tumour cell line growth inhibition, 48 h
SF-539 CNS = test system: SF-539 CNS
NCI-H522 lung = test system: NCI-H522 lung
OVCAR-8 ovarian = test system: OVCAR-8 ovarian
MDA-MB-231 breast = test system: MDA-MB-231 breast
IGROV1 ovarian = test system: IGROV1 ovarian
MDA-N = test system: MDA-N
SF-295 CNS = test system: SF-295 CNS
NCI/ADR-RES ovarian = test system: NCI/ADR-RES ovarian
COLO 205 colon = test system: COLO 205 colon
NCI-H226 lung = test system: NCI-H226 lung

Structure (SMILES)	TGI (SF-539 CNS) [µM]	TGI (NCI-H522 lung) [µM]	GI50 (OVCAR-8 ovarian) [µM]	TGI (OVCAR-8 ovarian) [µM]	GI50 (MDA-MB-231 breast) [µM]	TGI (MDA-MB-231 breast) [µM]	GI50 (IGROV1 ovarian) [µM]	TGI (IGROV1 ovarian) [µM]	GI50 (MDA-N) [µM]	TGI (MDA-N) [µM]	GI50 (SF-295 CNS) [µM]	TGI (SF-295 CNS) [µM]	GI50 (NCI/ADR-RES ovarian) [µM]	TGI (NCI/ADR-RES ovarian) [µM]	GI50 (COLO 205 colon) [µM]	TGI (COLO 205 colon) [µM]	GI50 (SF-539 CNS) [µM]	GI50 (NCI-H226 lung) [µM]	TGI (NCI-H226 lung) [µM]	GI50 (NCI-H522 lung) [µM]
O=S(OC12CC3CC(CC(C3)C1)C2)c1cc(Cl)cc(Cl)c1OCc1ccccc1 (centres undefined)	> 100	37.1																		
Nc1ccccc1.[C-]#[O+].[C-]#[O+].[C-]#[O+].[C-]#[O+].[C-]#[O+].[Cr]	> 10	> 10	4.03	> 10	5.79	> 10	5.53	> 10	3.53	> 10	> 10	> 10	2.76	9.79	3.52	> 10	3.28	> 10	> 10	2.94
Cc1cn(C2CC(N)C(C(=O)NCC(=O)O)O2)c(=O)[nH]c1=O (centres undefined)		> 100				> 100		> 100		> 100				> 100		> 100			> 100	
O=[N+]([O-])c1ccccc1S(=O)(=O)c1ccccc1	> 100			> 100				> 100				> 100				> 100			> 100	
CC(=O)OCC1OC(OCCCCCCO)C(OC(C)=O)C(OC(C)=O)C1OC(C)=O (centres undefined)	> 100	> 100		> 100		> 100		> 100		> 100		> 100		> 100					> 100	
CC1(C)C(=O)c2ccccc2OC1N1CCN(C2Oc3ccccc3C(=O)C2(C)C)CC1 (centres undefined)		> 100				> 100		> 100		> 100				> 100		> 100			> 100	
COc1ccc(-c2ccc(-c3ccc(C(=N)N)nc3)s2)cc1Cl	3.17		2.6	7.13	1.7	3.38					1.8	3.24					1.74			
